Test results published in US8293790B2, “Pharmaceutical compositions comprising DGLA and benzoyl peroxide and methods of use thereof” (Dignity Sciences Limited, priority 2011, dated 2012).
In brackets after ≈: the same amount, converted by molar mass.

Tests used:
P. acnes [1] = experiment: Agar dilution method: growth of P. acnes and MIC, fatty acid compounds in combination with other compounds; format: cell-based, Propionibacterium acnes; details: for MIC (mg/mL) with 0.05 mg/mL 15-HETrE spike / MIC (mg/mL) with 0.1 mg/mL 15-OHEPA spike: itself an inhibitory concentration
Experimental: Several compounds including fatty acids such as DGLA, 15-OHEPA, and 15-HETrE were tested to determine their capacity to inhibit the growth of P. acnes. In an exemplary method, an agar dilution method was used to determine the minimum inhibitory concentration (MIC) of each tested compound. Briefly, the agar dilution method involved preparing a series of concentrations of each compound (e.g., nicotinamide, benzoyl peroxide, adapalene, metronidazole, DGLA, 15-OHEPA, and 15-HETrE) in a Reinforced Clostridial Agar (RCA) media that facilitates growth of P. acnes under anaerobic conditions. An inoculum of P. acnes was prepared by incubation of P. acnes for approximately seven days at 35-37° C. to achieve a ≧1.0 OD600 inoculum of P. acnes in RCM broth. A portion of this inoculum was then added to the surface of each plate as a 10 μL spot and incubated at 35-37° C. for 72 hours or more. Growth of P. acnes was then observed and compared to control plates in which no compound has been added, and positive inhibition plates prepared with erythromycin. […] The growth of P. acnes in the presence of nicotinamide, benzoyl peroxide, adapalene, metronidazole, DGLA, 15-OHEPA, and 15-HETrE was determined with varying concentrations of the compound (see, Table 2). Next, the MIC was determined as the concentration at which a marked reduction (+) occurs in the appearance of growth on the test plate (as per Clinical and Laboratory Standards Institute M11-A7). The compounds tested singly in Example 1 were tested in combination with one another to determine the capacity of the combination to inhibit the growth of P. acnes. In an exemplary method, the MIC was determined for each of the combination as described in Example 1. Briefly, test combinations included DGLA with nicotinamide, benzoyl peroxide, adapalene, or metronidazole; 15-HETrE with nicotinamide, benzoyl peroxide, adapalene, or metronidazole; and 15-OHEPA with nicotinamide, benzoyl peroxide, adapalene, or metronidazole. The tables below show the growth of P. acnes in the presence of 0.4 or 1.0 mg/mL DGLA with varying concentrations of nicotinamide, benzoyl peroxide, adapalene, or metronidazole (Table 3); the growth of P. acnes in the presence of 0.01 or 0.05 mg/mL 15-HETrE with varying concentrations of nicotinamide, benzoyl peroxide, adapalene, or metronidazole (Table 5); and the growth of P. acnes in the presence of 0.5 or 0.1 mg/mL 15-OHEPA with varying concentrations of nicotinamide, benzoyl peroxide, adapalene, or metronidazole (Table 7).

P. acnes [2] = experiment: Agar dilution method: growth of P. acnes and MIC, compounds tested singly; format: cell-based, Propionibacterium acnes; parameters: key to Growth Index (+++, ++, +, −) Plate 1 / Growth Index (+++, ++, +, −) Plate 2 / Growth Index (+++, ++, +, −) Plate 3 / Growth Index (+++, ++, +, −) Avg: +++: confluent growth (comparable to control); ++: less confluent growth; +: marked reduction in growth to multiple tiny, single colonies; −: no growth present; details: for MIC: Cutibacterium acnes, compound alone, MIC = concentration with marked reduction (+) of growth, read-out: MIC (mg/mL) as per P-11-0007 or P-11-0008 Addendum A
Experimental: Several compounds including fatty acids such as DGLA, 15-OHEPA, and 15-HETrE were tested to determine their capacity to inhibit the growth of P. acnes. In an exemplary method, an agar dilution method was used to determine the minimum inhibitory concentration (MIC) of each tested compound. Briefly, the agar dilution method involved preparing a series of concentrations of each compound (e.g., nicotinamide, benzoyl peroxide, adapalene, metronidazole, DGLA, 15-OHEPA, and 15-HETrE) in a Reinforced Clostridial Agar (RCA) media that facilitates growth of P. acnes under anaerobic conditions. An inoculum of P. acnes was prepared by incubation of P. acnes for approximately seven days at 35-37° C. to achieve a ≧1.0 OD600 inoculum of P. acnes in RCM broth. A portion of this inoculum was then added to the surface of each plate as a 10 μL spot and incubated at 35-37° C. for 72 hours or more. Growth of P. acnes was then observed and compared to control plates in which no compound has been added, and positive inhibition plates prepared with erythromycin. […] The growth of P. acnes in the presence of nicotinamide, benzoyl peroxide, adapalene, metronidazole, DGLA, 15-OHEPA, and 15-HETrE was determined with varying concentrations of the compound (see, Table 2). Next, the MIC was determined as the concentration at which a marked reduction (+) occurs in the appearance of growth on the test plate (as per Clinical and Laboratory Standards Institute M11-A7).

`Cc1ncc([N+](=O)[O-])n1CCO` [Metronidazole] was tested, and the “MIC (mg/mL) with 0.01 mg/mL 15-HETrE spike” value (P. acnes [1]; 0.01 mg/mL 15-HETrE spike) was greater than 1 mg/mL, the “MIC (mg/mL) with 0.05 mg/mL 15-HETrE spike” value (P. acnes [1]) was less than 0.2 mg/mL and the “MIC (mg/mL) with 0.05 mg/mL 15-OHEPA spike” value (P. acnes [1]; 0.05 mg/mL 15-OHEPA spike) was greater than 1 mg/mL. For the same molecule, the “MIC (mg/mL) with 0.1 mg/mL 15-OHEPA spike” value (P. acnes [1]) was less than 0.2 mg/mL, the “MIC (mg/mL) with 0.4 mg/mL dGLA spike” value (P. acnes [1]; 0.4 mg/mL dGLA spike, dGLA supplied by Sigma, cat# E4504) was greater than 1 mg/mL and the “MIC (mg/mL) with 1.0 mg/mL dGLA spike” value (P. acnes [1]; 1.0 mg/mL dGLA spike, dGLA supplied by Cayman, cat# 90230) was greater than 1 mg/mL. The “growth of P. acnes in combination with 15-HETrE compared with 15-HETrE alone” value (P. acnes [1]) was “did not reduce the growth of P. Acnes below that of 15-HETrE used alone”, the “growth of P. acnes in combination with 15-OHEPA compared with 15-OHEPA alone” value (P. acnes [1]) was “did not reduce the growth of P. Acnes below that of 15 OHEPA used alone” and the “growth of P. acnes in combination with DGLA compared with DGLA alone” value (P. acnes [1]) was “did not reduce the growth of P. Acnes below that of DGLA used alone”. The MIC (P. acnes [2]) was greater than 1 mg/mL, the “Growth Index (+++, ++, +, −) Avg” value (P. acnes [2]; compound at 0.2 mg/mL in agar) was “+++” and the “Growth Index (+++, ++, +, −) Plate 1” value (P. acnes [2]; compound at 0.2 mg/mL in agar) was “+++”. For the same molecule, the “Growth Index (+++, ++, +, −) Plate 2” value (P. acnes [2]; compound at 0.2 mg/mL in agar) was “+++”, the “Growth Index (+++, ++, +, −) Plate 3” value (P. acnes [2]; compound at 0.2 mg/mL in agar) was “+++” and the “Growth Index (+++, ++, +, −) Avg” value (P. acnes [2]; compound at 0.4 mg/mL in agar) was “+++”. For the same molecule, the “Growth Index (+++, ++, +, −) Plate 1” value (P. acnes [2]; compound at 0.4 mg/mL in agar) was “+++”, the “Growth Index (+++, ++, +, −) Plate 2” value (P. acnes [2]; compound at 0.4 mg/mL in agar) was “+++” and the “Growth Index (+++, ++, +, −) Plate 3” value (P. acnes [2]; compound at 0.4 mg/mL in agar) was “+++”. The “Growth Index (+++, ++, +, −) Avg” value (P. acnes [2]; compound at 0.6 mg/mL in agar) was “+++”, the “Growth Index (+++, ++, +, −) Plate 1” value (P. acnes [2]; compound at 0.6 mg/mL in agar) was “+++” and the “Growth Index (+++, ++, +, −) Plate 2” value (P. acnes [2]; compound at 0.6 mg/mL in agar) was “+++”. For the same molecule, the “Growth Index (+++, ++, +, −) Plate 3” value (P. acnes [2]; compound at 0.6 mg/mL in agar) was “+++”, the “Growth Index (+++, ++, +, −) Avg” value (P. acnes [2]; compound at 0.8 mg/mL in agar) was “+++” and the “Growth Index (+++, ++, +, −) Plate 1” value (P. acnes [2]; compound at 0.8 mg/mL in agar) was “+++”. For the same molecule, the “Growth Index (+++, ++, +, −) Plate 2” value (P. acnes [2]; compound at 0.8 mg/mL in agar) was “+++”, the “Growth Index (+++, ++, +, −) Plate 3” value (P. acnes [2]; compound at 0.8 mg/mL in agar) was “+++” and the “Growth Index (+++, ++, +, −) Avg” value (P. acnes [2]; compound at 1.0 mg/mL in agar) was “+++”. For the same molecule, the “Growth Index (+++, ++, +, −) Plate 1” value (P. acnes [2]; compound at 1.0 mg/mL in agar) was “+++”, the “Growth Index (+++, ++, +, −) Plate 2” value (P. acnes [2]; compound at 1.0 mg/mL in agar) was “++” and the “Growth Index (+++, ++, +, −) Plate 3” value (P. acnes [2]; compound at 1.0 mg/mL in agar) was “+++”.
`NC(=O)c1cccnc1` [Nicotinamide] was tested, and the “MIC (mg/mL) with 0.05 mg/mL 15-HETrE spike” value (P. acnes [1]) was less than 1 mg/mL, the “MIC (mg/mL) with 0.1 mg/mL 15-OHEPA spike” value (P. acnes [1]) was less than 1 mg/mL and the “growth of P. acnes in combination with 15-HETrE compared with 15-HETrE alone” value (P. acnes [1]) was “did not reduce the growth of P. Acnes below that of 15-HETrE used alone”. The “growth of P. acnes in combination with 15-OHEPA compared with 15-OHEPA alone” value (P. acnes [1]) was “did not reduce the growth of P. Acnes below that of 15 OHEPA used alone”, the “growth of P. acnes in combination with DGLA compared with DGLA alone” value (P. acnes [1]) was “did not reduce the growth of P. Acnes below that of DGLA used alone” and the MIC (P. acnes [2]) was 10 to 15 mg/mL (≈ 81.9 to 123 mM). The “Growth Index (+++, ++, +, −) Avg” value (P. acnes [2]; compound at 1 mg/mL in agar) was “+++”, the “Growth Index (+++, ++, +, −) Plate 1” value (P. acnes [2]; compound at 1 mg/mL in agar) was “+++” and the “Growth Index (+++, ++, +, −) Plate 2” value (P. acnes [2]; compound at 1 mg/mL in agar) was “+++”. The “Growth Index (+++, ++, +, −) Plate 3” value (P. acnes [2]; compound at 1 mg/mL in agar) was “+++”, the “Growth Index (+++, ++, +, −) Avg” value (P. acnes [2]; compound at 5 mg/mL in agar) was “+++” and the “Growth Index (+++, ++, +, −) Plate 1” value (P. acnes [2]; compound at 5 mg/mL in agar) was “+++”. For the same molecule, the “Growth Index (+++, ++, +, −) Plate 2” value (P. acnes [2]; compound at 5 mg/mL in agar) was “+++”, the “Growth Index (+++, ++, +, −) Plate 3” value (P. acnes [2]; compound at 5 mg/mL in agar) was “+++” and the “Growth Index (+++, ++, +, −) Avg” value (P. acnes [2]; compound at 10 mg/mL in agar) was “++”. For the same molecule, the “Growth Index (+++, ++, +, −) Plate 1” value (P. acnes [2]; compound at 10 mg/mL in agar) was “++”, the “Growth Index (+++, ++, +, −) Plate 2” value (P. acnes [2]; compound at 10 mg/mL in agar) was “++” and the “Growth Index (+++, ++, +, −) Plate 3” value (P. acnes [2]; compound at 10 mg/mL in agar) was “++”. The “Growth Index (+++, ++, +, −) Avg” value (P. acnes [2]; compound at 15 mg/mL in agar) was “+”, the “Growth Index (+++, ++, +, −) Plate 1” value (P. acnes [2]; compound at 15 mg/mL in agar) was “−” and the “Growth Index (+++, ++, +, −) Plate 2” value (P. acnes [2]; compound at 15 mg/mL in agar) was “+”. The “Growth Index (+++, ++, +, −) Plate 3” value (P. acnes [2]; compound at 15 mg/mL in agar) was “+”.
